According to patent publication US10807992B2, “Single enantiomer antiparasitic compounds” (priority 2017, dated 2020):
Where two headings read alike, the source gives them in different places.

What was measured:
Ixodes scapularis = test: In vitro contact activity against adult ticks (coated vial), I. scapularis; conditions: for mortality at 0.006 µM: Trial 1, dose 0.006 μM; for mortality at 0.024 µM: Trial 1, dose 0.024 μM; for mortality at 0.098 µM: Trial 1, dose 0.098 μM; for mortality at 0.39 µM: Trial 1, dose 0.39 μM; for mortality at 1.56 µM: Trial 1, dose 1.56 μM; for mortality at 6.25 µM: Trial 1, dose 6.25 μM; for mortality at 25 µM: Trial 1, dose 25 μM; for mortality at 100 µM: Trial 1, dose 100 μM
Description: Rhipicephalus sanguineus, Dermacentor variabilis, Amblyomma americanum, (Ecto Services, Inc., Henderson, N.C.) and Ixodes scapularis (Oklahoma State University, Stillwater, Okla.) aged between 2-4 weeks post molt were held in an environmental chamber at 24° C., 80% humidity with 12-hour light/dark cycles.
For tick assays, vial caps were pre-drilled with a single hole in the center of each cap to allow air exchange. A filter paper (Whatman Grade 540 2.1 cm) was placed in the lid of each vial. An aliquot from each compound stock was added to an acetone/triton solution to achieve the desired top doses for the study. Serial dilutions were conducted from the top dose (i.e. 100 ppm) to achieve the desired titration range for EC50 and EC90 determination. For R. sanguineus, D. variabilis, and A. americanum, the final DMSO concentration in each test vial was 0.5%. For I. scapularis, compounds were solubilized directly in an acetone/triton solution due to I. scapularis' sensitivity to DMSO. A 459 μL aliquot of each compound formulation was transferred to a vial containing a Whatman Grade 540 2.1 cm filter paper. Vials were immediately placed on an unheated roller unit to allow for an even coating of the vial walls. After vials were coated, 41 μL of each compound formulation was added to the filter paper embedded in each vial cap. Each cap was allowed to dry. The vials were loosely capped and allowed to dry for a minimum of four hours in a chemical fume hood.
(§1) Compounds tested were: the C1 racemate, C1 (R) enantiomer, and the C1 (S) enantiomer. For Trial 3, the C1 (R) enantiomer and the C1 (S) enantiomer were further chiral purified to achieve >99% purity.
Ten adult ticks were added to each vial and held at 24° C., 80% humidity with 12-hour light/dark cycles. Adult ticks were assessed for percent mortality at various time points between 2 hours and 48 hours post infestation. Ticks were stimulated on a heated roller unit and evaluated. Ticks showing no movement, or very slow and uncoordinated movement were noted as dead.

Aedes aegypti = test: In vitro ingestion activity against adult mosquitoes (artificial feeding, bovine blood); conditions: read-out: Mortality % R1 + R2
Description: Aedes aegypti (Louisiana Biologicals Inc., New Orleans, La.) eggs were allowed to hatch, close, and age between 3-5 days in an environmental chamber at 26° C., 80% humidity with light/dark cycles.
For mosquito ingestion tests, serial dilutions of the compound stock were performed using DMSO to achieve the desired range for EC50 and EC90 determination. An aliquot of each compound dilution was added to organic bovine blood with a final DMSO concentration of 0.5% and placed in a temperature-controlled artificial feeding container.
as §1
For both contact and ingestion assays, five female Aedes aegypti adults were added to each vial or cage. The test vials for contact assays were held in an environmental chamber at 24° C., 80% humidity with light/dark cycles (12 hours each). The cages for mosquito ingestion assays were held in a temperature-controlled artificial feeding apparatus to allow continual access to organic bovine blood containing the desired concentration of compound. Fresh aliquots of compound-spiked bovine blood were provided daily for the duration of the study.
Assessment of mortality/knockdown was performed at various time points between 30 minutes and 24 hours post infestation. Mosquitoes showing no movement or mosquitoes that were knocked down were noted as dead. Results from trial 1 and trial 2 contact assays are shown in Tables 12 and 13, respectively and the results from trial 3 mosquito ingestion assay is shown in table 14.
For the mosquito contact and ingestion assays, each replicate contained 5 mosquitoes. For ease of calculation, the two replicates were added to equal a total of 10 mosquitoes.

O=C(CC(F)(F)F)N1CC2(C1)OCc1cc(C3=NSC(c4cc(Cl)c(F)c(Cl)c4)(C(F)(F)F)C3)ccc12 (racemic) [C1 racemate, 1-[6-[5-(3,5-dichloro-4-fluoro-phenyl)-5-(trifluoromethyl)-4H-isothiazol-3-yl]spiro[1H-isobenzofuran-3,3′-azetidine]-1′-yl]-3,3,3-trifluoro-propan-1-one]
40%: mortality at 25 µM (Ixodes scapularis; 6 h, Rep2)
71.4%: mortality at 0.049 ppm (Aedes aegypti; 24 h)
20%: mortality at 0.098 µM (Ixodes scapularis; 24 h, Rep2)
30%: mortality at 0.024 µM (Ixodes scapularis; 24 h, Rep2) | mortality at 1.56 µM (Ixodes scapularis; 24 h, Rep2) | mortality at 0.024 µM (Ixodes scapularis; 48 h, Rep2)
100%: mortality at 100 µM (Ixodes scapularis; 6 h, Rep1) | mortality at 100 µM (Ixodes scapularis; 12 h, Rep1) | mortality at 100 µM (Ixodes scapularis; 12 h, Rep2) | mortality at 6.25 µM (Ixodes scapularis; 24 h, Rep2) | mortality at 25 µM (Ixodes scapularis; 24 h, Rep2) | mortality at 100 µM (Ixodes scapularis; 24 h, Rep1) | mortality at 100 µM (Ixodes scapularis; 24 h, Rep2) | mortality at 0.39 µM (Ixodes scapularis; 48 h, Rep2) | mortality at 6.25 µM (Ixodes scapularis; 48 h, Rep1) | mortality at 6.25 µM (Ixodes scapularis; 48 h, Rep2) | mortality at 25 µM (Ixodes scapularis; 48 h, Rep1) | mortality at 25 µM (Ixodes scapularis; 48 h, Rep2) | mortality at 100 µM (Ixodes scapularis; 48 h, Rep1) | mortality at 100 µM (Ixodes scapularis; 48 h, Rep2) | mortality at 0.2 ppm (Aedes aegypti; 24 h) | mortality at 0.78 ppm (Aedes aegypti; 24 h) | mortality at 3.125 ppm (Aedes aegypti; 24 h) | mortality at 12.5 ppm (Aedes aegypti; 24 h) | mortality at 50 ppm (Aedes aegypti; 24 h) | mortality at 3.125 ppm (Aedes aegypti) | mortality at 12.5 ppm (Aedes aegypti) | mortality at 50 ppm (Aedes aegypti)
70%: mortality at 6.25 µM (Ixodes scapularis; 12 h, Rep2) | mortality at 25 µM (Ixodes scapularis; 12 h, Rep2) | mortality at 0.39 µM (Ixodes scapularis; 48 h, Rep1)
50%: mortality at 100 µM (Ixodes scapularis; 6 h, Rep2) | mortality at 25 µM (Ixodes scapularis; 12 h, Rep1) | mortality at 0.39 µM (Ixodes scapularis; 24 h, Rep1) | mortality at 0.39 µM (Ixodes scapularis; 24 h, Rep2) | mortality at 0.78 ppm (Aedes aegypti)
60%: mortality at 0.098 µM (Ixodes scapularis; 48 h, Rep2)
90%: mortality at 25 µM (Ixodes scapularis; 24 h, Rep1) | mortality at 1.56 µM (Ixodes scapularis; 48 h, Rep1)
10%: mortality at 25 µM (Ixodes scapularis; 6 h, Rep1) | mortality at 0.39 µM (Ixodes scapularis; 12 h, Rep2) | mortality at 1.56 µM (Ixodes scapularis; 24 h, Rep1) | mortality at 0.006 µM (Ixodes scapularis; 48 h, Rep1) | mortality at 0.024 µM (Ixodes scapularis; 48 h, Rep1)
0%: mortality at 0.006 µM (Ixodes scapularis; 2 h, Rep1) | mortality at 0.006 µM (Ixodes scapularis; 2 h, Rep2) | mortality at 0.024 µM (Ixodes scapularis; 2 h, Rep1) | mortality at 0.024 µM (Ixodes scapularis; 2 h, Rep2) | mortality at 0.098 µM (Ixodes scapularis; 2 h, Rep1) | mortality at 0.098 µM (Ixodes scapularis; 2 h, Rep2) | mortality at 0.39 µM (Ixodes scapularis; 2 h, Rep1) | mortality at 0.39 µM (Ixodes scapularis; 2 h, Rep2) | mortality at 1.56 µM (Ixodes scapularis; 2 h, Rep1) | mortality at 1.56 µM (Ixodes scapularis; 2 h, Rep2) | mortality at 6.25 µM (Ixodes scapularis; 2 h, Rep1) | mortality at 6.25 µM (Ixodes scapularis; 2 h, Rep2) | mortality at 25 µM (Ixodes scapularis; 2 h, Rep1) | mortality at 25 µM (Ixodes scapularis; 2 h, Rep2) | mortality at 100 µM (Ixodes scapularis; 2 h, Rep1) | mortality at 100 µM (Ixodes scapularis; 2 h, Rep2) | mortality at 0.006 µM (Ixodes scapularis; 6 h, Rep1) | mortality at 0.006 µM (Ixodes scapularis; 6 h, Rep2) | mortality at 0.024 µM (Ixodes scapularis; 6 h, Rep1) | mortality at 0.024 µM (Ixodes scapularis; 6 h, Rep2) | mortality at 0.098 µM (Ixodes scapularis; 6 h, Rep1) | mortality at 0.098 µM (Ixodes scapularis; 6 h, Rep2) | mortality at 0.39 µM (Ixodes scapularis; 6 h, Rep1) | mortality at 0.39 µM (Ixodes scapularis; 6 h, Rep2) | mortality at 1.56 µM (Ixodes scapularis; 6 h, Rep1) | mortality at 1.56 µM (Ixodes scapularis; 6 h, Rep2) | mortality at 6.25 µM (Ixodes scapularis; 6 h, Rep1) | mortality at 6.25 µM (Ixodes scapularis; 6 h, Rep2) | mortality at 0.006 µM (Ixodes scapularis; 12 h, Rep1) | mortality at 0.006 µM (Ixodes scapularis; 12 h, Rep2) | mortality at 0.024 µM (Ixodes scapularis; 12 h, Rep1) | mortality at 0.024 µM (Ixodes scapularis; 12 h, Rep2) | mortality at 0.098 µM (Ixodes scapularis; 12 h, Rep1) | mortality at 0.098 µM (Ixodes scapularis; 12 h, Rep2) | mortality at 0.39 µM (Ixodes scapularis; 12 h, Rep1) | mortality at 1.56 µM (Ixodes scapularis; 12 h, Rep1) | mortality at 1.56 µM (Ixodes scapularis; 12 h, Rep2) | mortality at 6.25 µM (Ixodes scapularis; 12 h, Rep1) | mortality at 0.006 µM (Ixodes scapularis; 24 h, Rep1) | mortality at 0.006 µM (Ixodes scapularis; 24 h, Rep2) | mortality at 0.024 µM (Ixodes scapularis; 24 h, Rep1) | mortality at 0.098 µM (Ixodes scapularis; 24 h, Rep1) | mortality at 0.006 µM (Ixodes scapularis; 48 h, Rep2) | mortality at 0.098 µM (Ixodes scapularis; 48 h, Rep1) | mortality at 0.049 ppm (Aedes aegypti) | mortality at 0.2 ppm (Aedes aegypti)
80%: mortality at 6.25 µM (Ixodes scapularis; 24 h, Rep1) | mortality at 1.56 µM (Ixodes scapularis; 48 h, Rep2)
